Data taken from US8778971B2, “Medicinal treatment of dermal diseases in companion animals” (Bridge Pharma, Inc., priority 2012, dated 2014).
pIC50: −log10 of the molar value. Marks after values point to notes of the source that are not given here.

Legend:
histamine H1-receptors = histamine H1-receptors (Homo sapiens, UniProt P35367); assay: H1 receptor binding, [3H]pyrilamine ligand; conditions: human recombinant receptors, read-out: H-1/IC50
Procedure: H1 receptor binding studies were conducted utilizing human recombinant receptors. In the studies shown herein, affinities of the test compounds for histamine H1-receptors were assessed using a binding assay, where [^3H]pyrilamine was used as the ligand and the test compounds were used at increasing concentrations. The specific binding of the radioactive ligand to the receptor was defined as the difference between total binding and nonspecific binding, determined in the presence of excess unlabeled ligand.

[1] = tested on: histamine-induced wheal response; assay: Antihistaminic activity in vivo, intradermal histamine wheal; parameters: species or system rats; conditions: rat; for Histamine wheal area: 60 min before histamine; for Saline wheal area: histamine vehicle injection; for Histamine effect: histamine minus saline
Procedure: Male rats (150-200 g) were fasted overnight and twelve hours after dorsal depilation, the animals were orally pretreated with the test compound(s). Four dorsal test areas were marked with permanent ink, carefully avoiding the area closest to the spine. […] Two intradermal injections of the vehicle for the histamine solution were also performed. […] Twenty minutes were allowed for the wheal response to fully develop, whereupon the animals were euthanized and the dorsal skin with the intradermal wheals were deflected. The blue spotted areas were measured in square millimeters and the duplicate wheal areas were averaged. […] The inhibition was calculated in percent difference from said baseline values.

[2] = tested on: human leukocytes (buffy coat); assay: Inhibition of A23187-stimulated histamine release from leukocytes; assay type: cell-based; conditions: for pIC50: Homo sapiens, Leukocyte, 20 min, A23187 5 μM, 20 min/37° C., read-out: Inhibition of inflammatory mediator (histamine) release, IC50
Procedure: In these studies, histamine was the marker compound for inflammatory mediators that are released from mast cells and other pro-inflammatory cells in patients with atopic inflammatory diseases. The inhibition of stimulated histamine release from human leukocytes (buffy coat) by test articles was studied. Leukocytes were obtained from healthy volunteers and histamine release was induced by incubation (20 min/37° C.) with the calcium ionophore A23187 (5 μM) in the presence or absence of a test article. Histamine was analyzed by enzyme-immune assays, using commercially available kits and a microplate reader (MRX, Dynatech). The test articles were evaluated, in duplicate, at five concentrations.

croton oil-treated ears [3] = assay: Croton oil ear inflammation, systemic (ip) administration; assay type: in vivo; conditions: mice, 10 mg/kg ip
Procedure: In order to investigate the effects of systemic administration of the test compounds in dermal inflammation, a croton oil model was used as is known in the art. This test consists of topical application of 20 μl of 1.0% croton oil to each ear of male mice, weighing 28-32 g. […] Application of the croton oil results in an inflammatory response. The weight of croton oil-treated ears was determined and the percent increase in ear weight is calculated. Test articles were dosed systemically (ip). […] All results represent mean ear weights (±S.E.M.) from 10 ears.

mice = assay: Sedative effects in mice, physostigmine lethality test; conditions: for Sedated animals: mice
Procedure: In short, physostigmine (1.0 mg/kg to 2.0 mg/kg, s.c.) generally results in 100% lethality when given to groups of mice (10 mice/group) transferred into a small volume of space. Mice administered a sedating drug prior to the physostigmine injection are protected from the stress and survive. In the present study, test compounds were given orally 60 minutes prior to physostigmine injection. The number of surviving (sedated) mice was counted 30 minutes after injection of the physostigmine dose.

dogs = assay: Sedative effects in dogs, cross-over oral dosing; assay type: in vivo; conditions: for Frequency of sedation: 20 mg/kg/day oral; for Sedation in dogs (in words): oral
Procedure: Sedation studies in dogs were performed according to a cross-over protocol, where the dogs were administered once daily the test articles orally at a dose of 20 mg/kg bodyweight that in a previous toxicology study was marginally toxic in dogs with equal plasma concentrations of R-norketotifen and S-norketotifen.
The test articles were administered in gelatin capsules and vehicle-capsules were empty. All dogs were healthy beagles (four males and two females), age 24-36 months, weighing 7.8-10.6 kg. The dogs were dosed at 9-10 AM and had been fasted overnight before dosing. There was a washout period of at least three days in all dogs between the tests. All assessments of sedation/sleepiness were made by a qualified (D.V.M.) scientist with extensive experience (>15 years) in studies with conscious laboratory dogs. The test articles were in the form of hydrogen fumarate salts.
It had previously been observed that dogs rarely express sedation in response to oral administration of benzocycloheptathiophene compounds on the first day of dosing and the dogs were therefore administered the test articles for three consecutive days.

rats = assay: Acute toxicity, Up-and-Down Procedure; assay type: in vivo; conditions: RAT, hydrogen fumarate salts
Procedure: Acute toxicological studies were performed in rats (Sprague-Dawley; M and F; 200-250 grams). The animal-sparing Up-and-Down Procedure (FDA, OECD) was used. Both oral and intravenous toxicity tests were performed.
Both compounds were administered as hydrogen fumarate salts.

croton oil-treated ears [4] = assay: Modified croton oil ear inflammation, topical cream; assay type: in vivo; conditions: mice, 1.0% cream topical
Procedure: In order to investigate the effects of topical administration of the test compounds in dermal inflammation, a modified croton oil model was used. […] The cream was then removed and a solution of 1% croton oil in 20 μl acetone was applied to both ears. […] Cream was wiped from the ears and ears were removed and weighed. […] All results represent mean ear weights (±S.E.M.) from 8 ears.

[5] = tested on: histamine-induced pruritus; assay: Histamine-induced pruritus, topical cream; assay type: in vivo; conditions: mice, 1.0% cream topical 60 min before histamine
Procedure: Antipruritic effects were tested in vivo in CD-1 female mice aged 10-12 weeks, according to methods known in the art. The hair was clipped over the rostral part of the back at the interscapular level of the mice one day before dosing. Before testing, the mice were placed in individual clear plastic cages for at least one hour for acclimation. […] Lanolin was weighed and liquified by submerging the vessel containing lanolin in hot water. While the lanolin was liquid, it was rapidly nixed (by vortexing) with the 2.5% norketotifen solution in ethanol, resulting in a 1.0% solution. […] A cream containing 60% lanolin/40% ethanol served as control.

Candida albicans = assay: Antimicrobial test, plate count; assay type: cell-based; conditions: 0.035% norketotifen, within 7 days, from 500,000
Procedure: (§1) Studies were performed to evaluate possible antimicrobial activities of norketotifen at various concentrations and various pHs. […]. The standard microbial solutions of norketotifen contained the following excipients: Sodium citrate (0.3%), propylene glycol (1.75%), methylparaben (0.03%), propylparaben (0.01%), sterile water (as diluent).
(§2) The microorganisms were inoculated into 50 mL centrifuge tubes containing 10 mL of test sample at T=0. One (1) mL was aliquoted from each centrifuge tube for each of the following 4 weeks (except at 21 days). The log reduction was determined by the plate count method after 7, 14 and 28 days by diluting in DEB (D/E neutralizing Broth) from 10^−1 to 10^−4 for bacteria. Bacterial plates were poured with SCDA (Soybean Casein Digest Agar) and incubated at 32.5±2.5° C. for 3-5 days

Staphylococcus aureus = assay: Antimicrobial test, plate count; assay type: cell-based; conditions: 0.035% norketotifen, within 7 days, from 750,000
Procedure: as §1, §2

Malassezia pachydermatis = assay: Antimicrobial test, Malassezia study; assay type: cell-based; conditions: after 24 hours
Procedure: The test article (norketotifen) was weighed and diluted into PBS to final concentrations of 0.210% and 0.035% before use. A 5 mL volume of the Test Article was aliquoted to a sterile 15 mL tube and the Malassezia sp (for example M. pachydermatis) were added at target concentrations of approx. 1.0×10^6 CFU/mL. The resulting mixture was vortexed thoroughly and incubated at room temperature for 7 days. A 0.500 mL aliquot of control and test tubes were harvested in 9.5 mL of D/E broth and any surviving test microorganisms were enumerated per standard dilution and plating techniques. Reductions were compared to a PBS Control at Time Zero and replicate tests were performed.

[6] = Solubility of norketotifen in non-aqueous solvents; assay type: physicochemical
Procedure: The hydrophobic ointment was prepared by dissolving norketotifen in propylene glycol. […] Next, glyceryl stearate, cetyl alcohol, and white petrolatum were added to a suitable container and heated to 65-70° C. This heating step melts the surfactants and the petrolatum. Next, norketotifen solution was slowly added and the composition mixed until the solvent was dispersed. Finally, the composition was cooled with mixing to allow the ointment to thicken.

[7] = oral 10 mg/kg, versus vehicle baseline

Chain of histamine H1-receptors (P35367 whole entry): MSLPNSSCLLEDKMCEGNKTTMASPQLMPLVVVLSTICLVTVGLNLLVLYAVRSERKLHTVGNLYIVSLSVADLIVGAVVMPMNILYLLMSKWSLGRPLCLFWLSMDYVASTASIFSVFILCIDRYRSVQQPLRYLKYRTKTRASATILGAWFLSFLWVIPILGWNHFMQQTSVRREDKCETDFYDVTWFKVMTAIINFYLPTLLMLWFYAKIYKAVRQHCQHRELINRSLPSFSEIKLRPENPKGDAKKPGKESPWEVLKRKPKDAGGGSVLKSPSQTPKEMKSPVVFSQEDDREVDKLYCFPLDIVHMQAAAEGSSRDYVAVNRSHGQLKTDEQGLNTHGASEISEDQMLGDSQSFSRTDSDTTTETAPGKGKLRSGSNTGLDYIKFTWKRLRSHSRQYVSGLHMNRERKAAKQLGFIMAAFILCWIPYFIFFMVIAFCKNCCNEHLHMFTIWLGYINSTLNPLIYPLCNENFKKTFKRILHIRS

Question: Which results are given for O=C1Cc2ccccc2C(=C2CCNCC2)c2ccsc21 (racemic) [Norketotifen, (RS)-4-(piperidylidene)-9,10-dihydro-4H-benzo-(4,5)-cyclohepta-(1,2-b) thiophene-10-one]?
Answer: pIC50 (histamine H1-receptors): 7.96; Histamine wheal area ([1]; oral 1.0 mg/kg): 114 ± 8 mm^2; Saline wheal area ([1]; oral 1.0 mg/kg): 22 ± 1 mm^2; Histamine effect ([1]; oral 1.0 mg/kg): 92 mm^2; inhibition at 1 mg/kg ([1]; oral 1.0 mg/kg, versus vehicle baseline): 2%; Histamine wheal area ([1]; oral 10 mg/kg): 39 ± 2 mm^2; Saline wheal area ([1]; oral 10 mg/kg): 22 ± 1 mm^2; Histamine effect ([1]; oral 10 mg/kg): 17 mm^2; inhibition at 10 mg/kg [1, 7]: 82%; Histamine wheal area ([1]; oral 50 mg/kg): 10 ± 1 mm^2; Saline wheal area ([1]; oral 50 mg/kg): 12 ± 1 mm^2; Histamine effect ([1]; oral 50 mg/kg): 0 mm^2; inhibition at 50 mg/kg ([1]; oral 50 mg/kg, versus vehicle baseline): 100%; pIC50 [2]: 5.04; Times more potent than ketotifen as inhibitor of histamine release ([2]; pro-inflammatory cells): approximately 10 times; Average Ear weight ±SEM (croton oil-treated ears [3]; 90 min): 34 ± 1 mg; Average Ear weight ±SEM (croton oil-treated ears [3]; 120 min): 40 ± 1 mg; Sedated animals (mice; oral dose 83 mg/kg): 3/10; Sedated animals (mice; oral dose 100 mg/kg): 3/10; Sedated animals (mice; oral dose 150 mg/kg): 3/10; Sedated animals (mice; oral dose 180 mg/kg): 6/10; Sedation in mice (in words) (mice; physostigmine lethality test): expressed sedative activity; Frequency of sedation (dogs; DAY 1): 0/6; Frequency of sedation (dogs; DAY 2): 0/6; Frequency of sedation (dogs; DAY 3): 0/6; Sedation in dogs (in words) (dogs): did not cause sedation in dogs; Acute toxicity (estimated LD50) (rats; intravenous): 10 to 15 mg/kg; Acute toxicity (estimated LD50) (rats; oral): 1500 to 2000 mg/kg; Average Ear Weight ±S.E.M (croton oil-treated ears [4]; 0 (predose) min after croton oil): 36 ± 1 mg; Average Ear Weight ±S.E.M (croton oil-treated ears [4]; 30 min after croton oil): 36 ± 1 mg; Average Ear Weight ±S.E.M (croton oil-treated ears [4]; 60 min after croton oil): 37 ± 2 mg; Average Ear Weight ±S.E.M (croton oil-treated ears [4]; 90 min after croton oil): 36 ± 2 mg; Bouts as % of Vehicle Controls [5]: 42 ** %; Bouts/40 min [5]: 61 ± 4; Bouts as % of Vehicle Controls ([5]; listed as RS-norketotifen): 42%; Candida albicans count after incubation (Candida albicans): 500 cells; Staphylococcus aureus count after incubation (Staphylococcus aureus): 90,000; Reduction of Malassezia pachydermatis (Malassezia pachydermatis; 0.035% norketotifen): 99.8%; Reduction of Malassezia pachydermatis (Malassezia pachydermatis; 0.2% norketotifen): 99.995%; Solubility ([6]; formulation G1009, mixture of two polyethylene glycols): about 1.0%; Solubility ([6]; in propylene glycol): about 1.0%

Question: With Clc1ccc2c(c1)CCc1cccnc1C2=C1CCNCC1 [DESLORATADINE] as the compound, how does the Sedated animals (mice; oral dose 150 mg/kg) read?
Answer: 0/10

Question: With CN(C)CCOC(c1ccccc1)c1ccccc1 [DIPHENHYDRAMINE] as the compound, how does the inhibition at 10 mg/kg [1, 7] read?
Answer: 31%

Question: And the Sedated animals (mice; oral dose 50 mg/kg)?
Answer: 5/10

Question: And the Sedated animals (mice; oral dose 100 mg/kg)?
Answer: 8/10

Question: For OCCOCCN1CCN(C(c2ccccc2)c2ccc(Cl)cc2)CC1 (centres unmarked) [HYDROXYZINE], which Sedated animals (mice; oral dose 100 mg/kg) is on record?
Answer: 9/10

Question: Which results are given for CN1CCC(=C2c3ccccc3CC(=O)c3sccc32)CC1 [Ketotifen, 4-(1-methyl-4-piperidyline)-4H-benzo(4,5)-cyclohepta-(1,2-b) thiophene-10-one, reference compound]?
Answer: pIC50 [2]: 4.04; Average Ear weight ±SEM (croton oil-treated ears [3]; 90 min): 37 ± 1 mg; Average Ear weight ±SEM (croton oil-treated ears [3]; 120 min): 42 ± 1 mg; Sedated animals (mice; oral dose 25 mg/kg): 5/10; Sedated animals (mice; oral dose 50 mg/kg): 8/10; Sedated animals (mice; oral dose 100 mg/kg): 10/10; Frequency of sedation (dogs; DAY 1): 0/6; Frequency of sedation (dogs; DAY 2): 5/6; Frequency of sedation (dogs; DAY 3): 5/6; Sedation in dogs (in words) (dogs): causes sedation in dogs; Acute toxicity (estimated LD50) (rats; intravenous): 5 to 10 mg/kg; Acute toxicity (estimated LD50) (rats; oral): <300 mg/kg

Question: Which Sedated animals (mice; oral dose 150 mg/kg) does the source give for CCOC(=O)N1CCC(=C2c3ccc(Cl)cc3CCc3cccnc32)CC1 [LORATADINE] here?
Answer: 1/10

Question: For COc1ccc(CN(CCN(C)C)c2ccccn2)cc1 [PYRILAMINE], which Sedated animals (mice; oral dose 100 mg/kg) is on record?
Answer: 8/10

Question: Which results are given for O=C1Cc2ccccc2C(=C2CCNCC2)c2ccsc21 [R-NORKETOTIFEN]?
Answer: Sedated animals (mice; oral dose 100 mg/kg, 100 mg/kg): 3/10; Sedated animals (mice; oral dose 150 mg/kg, 150 mg/kg): 3/10

Question: Which results are given for O=C1Cc2ccccc2C(=C2CCNCC2)c2ccsc21 [S-NORKETOTIFEN]?
Answer: Sedated animals (mice; oral dose 100 mg/kg, 100 mg/kg): 0/10; Sedated animals (mice; oral dose 150 mg/kg, 150 mg/kg): 0/10

Question: Which Sedated animals (mice; oral dose 150 mg/kg) does the source give for CC(C)(C)c1ccc(C(O)CCCN2CCC(C(O)(c3ccccc3)c3ccccc3)CC2)cc1 (centres unmarked) [TERFENADINE] here?
Answer: 0/10
